Source: US5618785A, “Peptide inhibitors of selectin binding” (Centocor, Inc., priority 1995, dated 1997)
Residues, ends and D or L forms follow the SMILES beside them.

Test system: P-selectin
Experiment: Inhibition of binding of human neutrophils to P-selectin (neutrophil adhesion to purified P-selectin immobilized on plastic wells)
Assay type: cell-based
Details: P-selectin isolated from human platelets, plated at 5 micrograms/mL, myeloperoxidase readout, peptides tested 1.0 mM to 0.001 mM
From the text: Peptides can be screened for their ability to inhibit adhesion to cells, for example, neutrophil adhesion to purified P-selectin immobilized on plastic wells, using the assay described by Geng, et al., Nature 343, 757-760 (1990).
Human neutrophils are isolated from heparinized whole blood by density gradient centrifugation on Mono-Poly resolving media, Flow Laboratories. Neutrophil suspensions are greater than 98% pure and greater than 95% viable by trypan blue exclusion. For adhesion assays, neutrophils are suspended at a concentration of 2×10^6 cells/mL in Hanks' balanced salt solution containing 1.26 mM Ca^2+ and 0.81 mM Mg^2+ (HBSS, Gibco) with 0.05 mg/mL human serum albumin (HBSS/HSA). Adhesion assays are conducted in triplicate in 96-well microtiter plates, Corning, incubated at 4° C. overnight with 50 microliters of various protein solutions.
P-selectin is isolated from human platelet lysates by immunoaffinity chromatography on antibody S12-Sepharose™ and ion-exchange chromatography on a Mono-Q™ column (FLPC, Pharmacia Fine Chemicals), as follows.
Outdated human platelet packs (100 units) obtained from a blood bank and stored at 4° C. are pooled, adjusted to 5 mM EDTA at pH 7.5, centrifuged at 4,000 rpm for 30 minutes in 1 liter bottles, then washed three times with 1 liter of 0.1M NaCl, 20 mM Tris pH 7.5 (TBS), 5 mM EDTA, 5 mM benzamidine.
The pellets are then resuspended in a minimum amount of wash buffer and made 1 mM in DIFP, then frozen in 50 mL screwtop tubes at -80° C. The frozen platelets are thawed and resuspended in 50 mL TBS, 5 mM benzamidine, 5 mM EDTA pH 7.5, […]. The suspension is frozen and thawed two times in a dry ice-acetone bath using a 600 mL lyophilizing flask, then homogenized in a glass/teflon mortar and pestle and made 1 mM in DIFP. The NaCl concentration is adjusted to 0.5M with a stock solution of 4M NaCl. After stirring the suspension at 4° C., it is centrifuged in polycarbonate tubes at 33,000 rpm for 60 minutes at 4° C. The supernatant (0.5M NaCl wash) is removed and saved; this supernatant contains the soluble form of P-selectin. Care is taken not to remove the top part of the pellet with the supernatant. The pellets are then homogenized in extraction buffer (TBS, 5 mM benzamidine, 5 mM EDTA, pH 7.5, 100 μM leupeptin, 2% Triton X-100). After centrifugation at 19,500 rpm for 25 minutes at 4° C., the supernatant is removed. The extraction procedure is repeated with the pellet and the supernatant is combined with the first supernatant. The combined extracts, which contain the membrane form of P-selectin, are adjusted to 0.5M NaCl.
The soluble fraction (0.5M NaCl wash) and the membrane extract (also adjusted to 0.5M NaCl) are absorbed with separate pools of the monoclonal antibody S12 (directed to P-selectin) previously coupled to Affigel (Biorad) at 5 mg/mL for 2 hours at 4° C. After letting the resins settle, the supernatants are removed. The S12 Affigel containing bound GMP-140 is then loaded into a column and washed overnight at 4° C. with 400 mL of 0.5M NaCl, 20 mM Tris pH 7.5, 0.01% Lubrol PX.
Bound P-selectin is eluted from the S12 Affigel with 100 mL of 80% ethylene glycol, 1 mM MES pH 6.0, 0.01% Lubrol PX. Peak fractions with absorbance at 280 nm are pooled. Eluates are dialyzed against TBS with 0.05% Lubrol, then applied to a Mono Q column (FPLC from Pharmacia). The concentrated protein is step eluted with 2M NaCl, 20 mM Tris pH 7.5 (plus 0.05% Lubrol PX for the membrane fraction). Peak fractions are dialyzed into TBS pH 7.5 (plus 0.05% Lubrol PX for the membrane fraction).
P-selectin is plated at 5 micrograms/mL and the control proteins: human serum albumin (Alb), platelet glycoprotein IIb/IIIa (IIb), von Willebrand factor (vWF), fibrinogen (FIB), thrombomodulin (TM), gelatin (GEL) or human serum (HS), are added at 50 micrograms/mL. […]

Row | SMILES | IC50
1 | CC[C@H](C)[C@H](NC(=O)[C@H](Cc1ccc(O)cc1)NC(=O)[C@@H](NC(=O)[C@H](CC(C)C)NC(=O)[C@H](Cc1c[nH]cn1)NC(=O)CNC(=O)[C@H](CCCNC(=N)N)NC(C)=O)C(C)C)C(=O)N[C@@H](CCC(N)=O)C(N)=O [Ac--RGHLVYIQ--NH2, Acetyl-arginyl-glycyl-histidyl-leucyl-valyl-tyrosyl-isoleucyl-glutamine-amide] (Ac-RGHLVYIQ-NH2) | 428 µM
2 | CC[C@H](C)[C@H](NC(=O)[C@@H](CCc1ccccc1)NC(=O)[C@@H](NC(=O)[C@H](CC(C)C)NC(=O)[C@H](CCCCN)NC(=O)[C@@H](NC(=O)[C@H](Cc1ccc(O)cc1)NC(C)=O)[C@@H](C)O)C(C)C)C(=O)N[C@@H](CCC(N)=O)C(N)=O [Ac--YTKLV--(D-homo-F)--IQ--NH2, Acetyl-tyrosyl-threonyl-lysyl-leucyl-valyl-(D-homo-phenylalanyl)-isoleucyl- glutamine-amide] (HELM PEPTIDE1{[ac].Y.T.K.L.V.[O=C([C@@H](CCc1ccccc1)N[*:1])[*:2]].I.Q.[am]}$$$$V2.0) | 26 µM
3 | CC(=O)N[C@@H](Cc1ccc(O)cc1)C(=O)N[C@H](C(=O)N[C@@H](CCCCN)C(=O)N[C@@H](CC(C)C)C(=O)N[C@H](C(=O)N[C@@H](Cc1ccccc1)C(=O)N[C@@H](CCC(N)=O)C(=O)N[C@@H](CCC(N)=O)C(N)=O)C(C)C)[C@@H](C)O [Ac--YTKLVFEQ--NH2, Acetyl-tyrosyl-threonyl-lysyl-leucyl-valyl-phenylalanyl-glutaminyl-glutamine-amide] (Ac-YTKLVFQQ-NH2) | 99 µM
4 | CC[C@H](C)[C@H](NC(=O)[C@H](Cc1c[nH]cn1)NC(=O)[C@@H](NC(=O)[C@H](CC(C)C)NC(=O)[C@H](CCCCN)NC(=O)[C@@H](NC(=O)[C@H](Cc1ccc(O)cc1)NC(C)=O)[C@@H](C)O)C(C)C)C(=O)N[C@@H](CCC(N)=O)C(N)=O [Ac--YTKLVHIQ--NH2, Acetyl-tyrosyl-threonyl-lysyl-leucyl-valyl-histidyl-isoleucyl-glutamine-amide] (Ac-YTKLVHIQ-NH2) | 81 µM
5 | CC[C@H](C)[C@H](NC(=O)[C@H](C)NC(=O)[C@@H](NC(=O)[C@H](CCc1ccccc1)NC(=O)[C@H](CCCCN)NC(=O)[C@@H](NC(=O)[C@@H](N)Cc1ccc(O)cc1)[C@@H](C)O)C(C)C)C(=O)N[C@@H](CCC(N)=O)C(N)=O [YTK--(homo-F)--VAIQ--NH2, Tyrosyl-threonyl-lysyl-(homo-phenylalanyl)-valyl-alanyl-isoleucyl-glutamine-amide] (HELM PEPTIDE1{Y.T.K.[O=C([C@H](CCc1ccccc1)N[*:1])[*:2]].V.A.I.Q.[am]}$$$$V2.0) | 52 µM
6 | CC[C@H](C)[C@H](NC(=O)[C@H](C)NC(=O)[C@@H](NC(=O)[C@H](Cc1ccccc1)NC(=O)[C@H](CCSC)NC(=O)[C@@H](NC(=O)[C@@H](N)Cc1ccc(O)cc1)[C@@H](C)O)C(C)C)C(=O)N[C@@H](CCC(N)=O)C(N)=O [YTMFVAIQ--NH2, Tyrosyl-threonyl-methionyl-phenylalanyl-valyl-alanyl-isoleucyl-glutamine-amide] (H-YTMFVAIQ-NH2) | 114 µM

The remaining compounds from weak to strong by IC50, led by results:

Row | IC50 | SMILES
7 | 270 µM | CC[C@@H](C)[C@@H](NC(=O)[C@@H](Cc1ccccc1)NC(=O)[C@H](NC(=O)[C@@H](CC(C)C)NC(=O)[C@@H](Cc1c[nH]cn1)NC(=O)CNC(=O)[C@H](N)CCCNC(=N)N)C(C)C)C(=O)N[C@H](CCC(N)=O)C(N)=O [rGhlvfiq--NH2, D-arginyl-glycyl-D-histidyl-D-leucyl-D-valyl-D-phenylalanyl-D-isoleucyl-D-glutamine-amide] (HELM PEPTIDE1{[dR].G.[dH].[dL].[dV].[dF].[dI].[dQ].[am]}$$$$V2.0)
8 | 149 µM | CC[C@H](C)[C@H](NC(=O)[C@H](Cc1ccccc1)NC(=O)[C@@H](NC(=O)[C@H](CC(C)C)NC(=O)[C@H](CCCCN)NC(=O)[C@@H](NC(=O)[C@H](Cc1ccc(O)cc1)NC(C)=O)[C@@H](C)O)C(C)C)C(=O)N[C@@H](CCC(N)=O)C(N)=O [Ac--YTKLVFIQ--NH2, Acetyl-tyrosyl-threonyl-lysyl-leucyl-valyl-phenylalanyl-isoleucyl-glutamine-amide] (Ac-YTKLVFIQ-NH2)
9 | 93 µM | CSCC[C@H](NC(=O)[C@@H](NC(=O)[C@@H](N)Cc1ccc(O)cc1)[C@@H](C)O)C(=O)N[C@@H](CC(C)C)C(=O)N[C@H](C(=O)N[C@@H](C)C(=O)N[C@@H](Cc1ccccc1)C(=O)N[C@@H](CCC(N)=O)C(N)=O)C(C)C [YTMLVAFQ--NH2, Tyrosyl-threonyl-methionyl-leucyl-valyl-alanyl-phenylalanyl-glutamine-amide] (H-YTMLVAFQ-NH2)
10 | 64 µM | CC[C@H](C)[C@H](NC(=O)[C@H](C)NC(=O)[C@@H](NC(=O)[C@H](Cc1ccc(O)cc1)NC(=O)[C@H](CCCCN)NC(=O)[C@@H](NC(=O)[C@@H](N)Cc1ccc(O)cc1)[C@@H](C)O)C(C)C)C(=O)N[C@@H](CCC(N)=O)C(N)=O [YTKYVAIQ--NH2, Tyrosyl-threonyl-lysyl-tyrosyl-valyl-alanyl-isoleucyl-glutamine-amide] (H-YTKYVAIQ-NH2)
11 | 22 µM | CC[C@H](C)[C@H](NC(=O)[C@H](Cc1ccccc1)NC(=O)[C@@H](NC(=O)[C@H](CC(C)C)NC(=O)[C@H](CCCCN)NC(=O)[C@@H](NC(=O)[C@@H](N)Cc1ccc(O)cc1)[C@@H](C)O)C(C)C)C(=O)N[C@@H](CCC(N)=O)C(N)=O [YTKLVFIQ--NH2, Tyrosyl-threonyl-lysyl-leucyl-valyl-phenylalanyl-isoleucyl-glutamine-amide] (H-YTKLVFIQ-NH2)
12 | 21 µM | CC[C@H](C)[C@H](NC(=O)[C@H](C)NC(=O)[C@@H](NC(=O)[C@H](Cc1ccccc1)NC(=O)[C@H](CCCCN)NC(=O)[C@@H](NC(=O)[C@@H](N)Cc1ccc(O)cc1)[C@@H](C)O)C(C)C)C(=O)N[C@@H](CCC(N)=O)C(N)=O [YTKFVAIQ--NH2, Tyrosyl-threonyl-lysyl-phenylalanyl-valyl-alanyl-isoleucyl-glutamine-amide] (H-YTKFVAIQ-NH2)
